Entries after “also recorded” stand apart in the source; their conditions may differ.

Here are results for three molecules from US20190223483A1, “SENSORY MODIFIER COMPOUNDS” (CARGILL, INCORPORATED, priority 2017, published 2019).

Assay type in all cases: in vivo
Assay [1] is described as follows: Roundtable assessment of off taste (scale 0 to 6). Also noted: key to Off taste / off taste score: 0 = none; 1 = trace/faint; 2 = slight; 3 = moderate; 4 = definite; 5 = strong; 6 = extreme. The method, then:
(§1) For other sweetness attributes, the solutions were tested by a panel of at least four individuals that are highly-trained in tasting steviol glycoside solutions. The highly-trained panelists used a roundtable methodology to assess each sweetness attribute. To test each solution, the highly-trained panelists dispensed approximately 2 mL of each solution into their own mouths by transfer pipet, dispersed the solution by moving their tongues, and recorded a value for the particular sweetness attribute being tested. Between tasting solutions, the panelists were able to cleanse their palates with water. For each sweetness attribute, the panelist agreed on a descriptive scale with relative intensities assigned for each sweetness attribute and then recorded the values for each sweetness attribute against this. For example, this roundtable assessment of sweetness linger assigned a scale of 0 to 6 with a score of 0 indicating no sweetness linger and a score of 6 indicating extreme sweetness linger. Roundtable assessment of sweetness linger assigned a scale of 0 to 6 with a score of 0 indicating no sweetness linger and a score of 6 indicating extreme sweetness linger (0=none, 1=trace, 2=slight, 3=moderate, 4=definite, 5=strong, 6=extreme). Roundtable assessment of rounded assigned a scale of 0 to 3 with a score of 0 indicating spikey and a score of 3 indicating desirable rounded (0=none, 1=mostly spikey, some rounded, 2=mostly rounded, some spikey, 3=rounded). Roundtable assessment of mouthfeel assigned a scale of 0 to 2 with a score of 0 indicating water and a score of 2 indicating syrupy (0=water, 1=sucrosey, 2=syrupy). Roundtable assessment of bitterness assigned a scale of 0 to 6 with a score of 0 indicating no bitterness and a score of 6 indicating extreme sweetness linger (0=none, 1=trace, 2=slight, 3=moderate, 4=definite, 5=strong, 6=extreme). Roundtable assessment of off tastes assigned a scale of 0 to 6 with a score of 0 indicating no bitterness and a score of 6 indicating extreme off tastes (0=none, 1=trace, 2=slight, 3=moderate, 4=definite, 5=strong, 6=extreme).
(§2) A series of assays were carried out to characterize off taste (0=none, 1=trace/faint, 2=slight, 3=moderate, 4=definite, 5=strong, 6=extreme) of steviol glycoside compositions with sensory modifier compound using the roundtable methodology described in Example 1. […] Solutions of steviol glycosides and sensory modifier compound were prepared at increasing ratios of sensory modifier to steviol glycoside by weight. The steviol glycosides were RebA (4 glycoside groups), RebD (5 glycoside groups), RebM (6 glycoside groups), and OPS1-5(7 glycoside groups) and the sensory modifier compound was monocaffeoylquinic and dicaffeoylquinic acids prepared from yerba mate. The concentration of steviol glycosides was 700 ppm in each solution. The solutions were tested for off taste. Off taste included astringency, metallic, powdery, numbing, and vapory attributes.

Assay [2] in a line: Roundtable assessment of mouthfeel (scale 0 to 2). As to the method: as §1
as §2, with “a sweetness quality of mouthfeel (0=water, 1=sucrosey, 2=syrupy)” for “off taste (0=none, 1=trace/faint, 2=slight, 3=moderate, 4=definite, 5=strong, 6=extreme)”, “The solutions were tested for off taste. Off taste included astringency, metallic, powdery, numbing, and vapory attributes.” left out

A short description of assay [3]: Overall sweetness quality preference. More on the design: key: ! = preferred; !! = very preferred; !!! = most preferred. As to the method:
A series of assays were carried out to determine overall sweetness quality preference for steviol glycoside with sensory modifier compound. Solutions of steviol glycosides and sensory modifier compound were prepared at varying concentrations of steviol glycoside and sensory modifier compound. The steviol glycoside was RebM and the sensory modifier compound was monocaffeoylquinic and dicaffeoylquinic acids prepared from yerba mate. The concentration of steviol glycosides was between 0 ppm and 1600 ppm. The concentration of sensory modifier compound was between 0 ppm and 1600 ppm. The solutions were tested for overall sweetness quality preference (!=preferred, !!=very preferred, and !!!=most preferred).

Assay [4] in a line: Roundtable assessment of bitterness (scale 0 to 6). More on the design: key: 0 = none; 1 = trace/faint; 2 = slight; 3 = moderate; 4 = definite; 5 = strong; 6 = extreme.
A short description of assay [5]: Roundtable assessment of off taste (scale 0 to 6). Also noted: key: 0 = none; 1 = trace/faint; 2 = slight; 3 = moderate; 4 = definite; 5 = strong; 6 = extreme.
The mark [6] stands for this setting: steviol glycoside 700 ppm + yerba mate mono/dicaffeoylquinic acids 630 ppm.
Setting [7] is: steviol glycoside 700 ppm + yerba mate mono/dicaffeoylquinic acids 946 ppm.
Setting [8] is: steviol glycoside 700 ppm + yerba mate mono/dicaffeoylquinic acids […].
Where [9] appears, read: steviol glycoside 700 ppm, sensory modifier 0 ppm.
[10] abbreviates: RebM 700 ppm + cichoric acid (tartaric backbone) 514 ppm.
Where [11] appears, read: RebM 700 ppm + rosmarinic acid 586 ppm.

In assay [1] (RebA 700 ppm, higher concentrations of sensory modifier), `C=C1C[C@@]23CC[C@H]4[C@@](C)(CCC[C@@]4(C)C(=O)O[C@@H]4O[C@H](CO)[C@@H](O)[C@H](O)[C@H]4O)[C@@H]2CC[C@]1(O[C@@H]1O[C@H](CO)[C@@H](O)[C@H](O[C@@H]2O[C@H](CO)[C@@H](O)[C@H](O)[C@H]2O)[C@H]1O[C@@H]1O[C@H](CO)[C@@H](O)[C@H](O)[C@H]1O)C3` [RebA, Rebaudioside A] yielded an off taste score of 2. In addition, the Off taste in assay [1] (setting [6]) is 2; in assay [1] (setting [7]), 2; in assay [1] (setting [8]), 2; in assay [1] (setting [9]), 6. The Mouthfeel entry in assay [2] (setting [6]), in assay [2] (setting [7]) and in assay [2] (setting [8]) was “Not noted by panel” in each case.

Take `C=C1C[C@@]23CC[C@H]4[C@@](C)(CCC[C@@]4(C)C(=O)O[C@@H]4O[C@H](CO)[C@@H](O)[C@H](O)[C@H]4O[C@@H]4O[C@H](CO)[C@@H](O)[C@H](O)[C@H]4O)[C@@H]2CC[C@]1(O[C@@H]1O[C@H](CO)[C@@H](O)[C@H](O[C@@H]2O[C@H](CO)[C@@H](O)[C@H](O)[C@H]2O)[C@H]1O[C@@H]1O[C@H](CO)[C@@H](O)[C@H](O)[C@H]1O)C3` [RebD, Rebaudioside D]: the Off taste in assay [1] (steviol glycoside 700 ppm + yerba mate mono/dicaffeoylquinic acids 270 ppm) and in assay [1] (setting [9]) was 2 each time. The Mouthfeel result in assay [2] (steviol glycoside 700 ppm + yerba mate mono/dicaffeoylquinic acids 810 ppm) is recorded as “Not noted by panel”.

With `C=C1C[C@@]23CC[C@H]4[C@@](C)(CCC[C@@]4(C)C(=O)O[C@@H]4O[C@H](CO)[C@@H](O)[C@H](O[C@@H]5O[C@H](CO)[C@@H](O)[C@H](O)[C@H]5O)[C@H]4O[C@@H]4O[C@H](CO)[C@@H](O)[C@H](O)[C@H]4O)[C@@H]2CC[C@]1(O[C@@H]1O[C@H](CO)[C@@H](O)[C@H](O[C@@H]2O[C@H](CO)[C@@H](O)[C@H](O)[C@H]2O)[C@H]1O[C@@H]1O[C@H](CO)[C@@H](O)[C@H](O)[C@H]1O)C3` [RebM, Rebaudioside M], the “Sweetness Quality preferred” value in assay [3] (quinic acid backbone modifier 400 ppm, RebM 600 ppm) was “!!”; in assay [3] (quinic acid backbone modifier 400 ppm, RebM 700 ppm), “!!”; in assay [3] (quinic acid backbone modifier 500 ppm, RebM 600 ppm) it was “!”; in assay [3] (quinic acid backbone modifier 500 ppm, RebM 700 ppm), “!!!”; in assay [3] (quinic acid backbone modifier 600 ppm, RebM 400 ppm), “!”; in assay [3] (quinic acid backbone modifier 600 ppm, RebM 700 ppm), “!”. Besides, the “Sweetness Quality preferred” value in assay [3] (quinic acid backbone modifier 700 ppm, RebM 800 ppm) is “!!”; in assay [3] (quinic acid backbone modifier 800 ppm, RebM 400 ppm), “!”; in assay [3] (quinic acid backbone modifier 800 ppm, RebM 600 ppm), “!”; in assay [3] (quinic acid backbone modifier 800 ppm, RebM 700 ppm) it was “!”. Also, the Bitterness in assay [4] (setting [10]) and in assay [4] (setting [11]) was 0 in each case. Also, the Off taste worked out at 0 in assay [5] (setting [10]); 0 in assay [5] (RebM 700 ppm + cichoric acid (tartaric backbone) 772 ppm); 2 in assay [5] (RebM 700 ppm + rosmarinic acid 391 ppm); 0 in assay [1] (RebM 700 ppm + cichoric acid (tartaric backbone) […]); 0 in assay [1] (RebM 700 ppm + rosmarinic acid 195 ppm); 0 in assay [1] (setting [11]). Also, the Off taste in assay [1] (steviol glycoside 700 ppm + yerba mate mono/dicaffeoylquinic acids 236 ppm) is given as 0; in assay [1] (steviol glycoside 700 ppm + yerba mate mono/dicaffeoylquinic acids 300 ppm), 0; in assay [1] (steviol glycoside 700 ppm + yerba mate mono/dicaffeoylquinic acids 400 ppm), 2; in assay [1] (steviol glycoside 700 ppm + yerba mate mono/dicaffeoylquinic acids 472 ppm) it was 0; in assay [1] (steviol glycoside 700 ppm + yerba mate mono/dicaffeoylquinic acids 500 ppm), 0; in assay [1] (steviol glycoside 700 ppm + yerba mate mono/dicaffeoylquinic acids 600 ppm) it was 2. For the same molecule, the Off taste in assay [1] (steviol glycoside 700 ppm + yerba mate mono/dicaffeoylquinic acids 700 ppm) turned out to be 0; in assay [1] (steviol glycoside 700 ppm + yerba mate mono/dicaffeoylquinic acids 708 ppm) it was 0; in assay [1] (steviol glycoside 700 ppm + yerba mate mono/dicaffeoylquinic acids 800 ppm) it was 2; in assay [1] (setting [9]), 5. The off taste entry in assay [1] (RebM 700 ppm, about 200 ppm and above of sensory modifier) was “not perceptible; also recorded: between slight and none”; in assay [1] (quinic, tartaric or 3-(3,4-dihydroxyphenyl)lactic acid backbone modifier above 200 ppm) it was “none”.
